Measurements published in patent US5698556A, “Methotrexate analogs and methods of using same” (priority 1995, dated 1997).
Like-named read-outs stand apart in the source and are kept apart here.

How the values were obtained:
L. casei DHFR = target: T1, L. casei DHFR (Lacticaseibacillus casei, UniProt P00381); assay: Inhibition of DHFR, spectrophotometric assay (L. casei DHFR); format: biochemical; conditions: pH 7.0, read-out: ID50 (drug concentration which inhibits enzyme activity by 50%)
T1 construct: purchased New England Enzyme Center (Boston, Mass.); host or cells: MTX-resistant L. casei
T1 sequence (P00381 whole entry): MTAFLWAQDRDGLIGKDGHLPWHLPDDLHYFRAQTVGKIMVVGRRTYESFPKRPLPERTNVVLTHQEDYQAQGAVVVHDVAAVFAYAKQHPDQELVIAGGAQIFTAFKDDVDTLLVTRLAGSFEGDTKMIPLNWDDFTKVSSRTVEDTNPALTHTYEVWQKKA
Experimental: (§1) Tests were conducted to determine the ID50 value for methotrexate analogs of the present invention. The ID50 value is the drug concentration which inhibits enzyme activity by 50%. […] DHFR activity was measured as the decrease over time in absorbance at 340 nm.
(§2) DHFR was diluted prior to each experiment in 50 mM potassium phosphate buffer (pH 7.0) containing 0.1 mM NADPH and 0.1% BSA.
(§3) Inhibition studies were carried out by adding to a 1.0 ml cuvette the assay solution containing all components except dihydrofolate, and then incubating the solution for 2 minutes at room temperature. The absorbance of the solution at 340 nm was recorded immediately following the addition of dihydrofolate. The mixtures were then incubated at room temperature for 5 minutes, and the absorbance at 340 nm was again recorded. […] ID50 values were determined by interpolation from graphs of percent of inhibition plotted against drug concentration.

CCRF/CEM Cells = assay: Growth inhibition of human leukemia cells (CCRF/CEM); format: cell-based; conditions: 120 hours continuous exposure
Experimental: Two suspensions of human leukemia cell lines were employed in this study. […] Cells were maintained at 37° C. with 5% CO2 in air, and were cultured using standard sterile tissue culture techniques.
Prior to toxicity studies, cells were maintained 48 hours in the absence of added inhibitor. […] Inhibitor concentrations ranging from 10^-12 to 10^-4 M were added to the cultures except for a control culture, which contained no added drug. Cell counts were performed by hematometer counting during 120 hours of continuous exposure to the drugs. The IC50 value was obtained by interpolation from graphs of percent growth inhibition plotted against drug concentration.

Chicken Liver DHFR = target: T2, Chicken Liver DHFR (Gallus gallus, UniProt P00378); assay: Inhibition of DHFR, spectrophotometric assay (chicken liver DHFR); format: biochemical; conditions: for IC50: chicken liver DHFR, pH 7.0, read-out: ID50 (drug concentration which inhibits enzyme activity by 50%)
T2 construct: purchased Sigma Chemical Co. (St. Louis, Mo.); host or cells: chicken liver
T2 sequence (P00378 1-189): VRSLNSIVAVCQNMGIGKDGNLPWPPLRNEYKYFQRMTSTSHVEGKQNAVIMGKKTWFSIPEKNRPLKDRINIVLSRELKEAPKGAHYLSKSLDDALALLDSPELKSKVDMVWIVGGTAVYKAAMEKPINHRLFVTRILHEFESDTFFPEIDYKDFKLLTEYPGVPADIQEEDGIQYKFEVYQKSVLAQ
Experimental: as §1, §2, §3

K562 cells = assay: Growth inhibition of human leukemia cells (K562); format: cell-based; conditions: for IC50: Homo sapiens; for times more compound as compared with MTX required to inhibit cell growth by 50%: relative to MTX
Experimental: The IC50 value is the drug concentration which inhibits cancer cell growth by 50%.
Two suspensions of human leukemia cell lines were employed in this study. The myelogenous leukemia cell line K562 was cultured in RPMI 1640 (JRH Biosciences) containing 10% filtered fetal bovine serum (FBS; Irvine Scientific), and the lymphoblastic leukemia cell line CCRF/CEM was cultured in RPMI 1640 containing 20% FBS, 100 U/ml penicillin (GIBCO Laboratories, Grand Island, N.Y.), and 100 μg/ml streptomycin (GIBCO). Cells were maintained at 37° C. with 5% CO2 in air, and were cultured using standard sterile tissue culture techniques.
Prior to toxicity studies, cells were maintained 48 hours in the absence of added inhibitor. Logarithmically growing cells were inoculated at 1×10^4 cells/ml in tissue culture grade Petri dishes (35×10 mm), and, following a suitable recovery period, were treated with chemical agents. Inhibitor concentrations ranging from 10^-12 to 10^-4 M were added to the cultures except for a control culture, which contained no added drug. Cell counts were performed by hematometer counting during 120 hours of continuous exposure to the drugs. The IC50 value was obtained by interpolation from graphs of percent growth inhibition plotted against drug concentration.

[1] = Metabolism in rabbit liver homogenate (formation of 7-OH-MTX); format: in vitro ADME, New Zealand white rabbit; conditions: pH 7.6
Experimental: For these experiments, freshly isolated liver from a New Zealand white rabbit was homogenized in 400 ml of cold buffer of pH 7.6 consisting of 10 mM Tris-HCl, 25 mM sucrose and 10 mM MgCl2. The homogenate was centrifuged at 1000×g for 20 minutes at 4° C., and the resulting pellet was resuspended in about 14 ml of the same buffer. […] Two ml samples of the homogenate were removed at 10 minute intervals. Samples were boiled S minutes to denature the proteins, and then centrifuged to pelletize cell debris. To determine inhibitor and 7-OH-MTX levels, 100 μl of the supernatant was analyzed by HPLC. For HPLC analysis, a Perkin-Elmer 410 LC solvent delivery system and a 5-μm IBM ODS column (4.1×250 mm) with a Guard column were employed. The mobile phase consisted of 0.1M monobasic sodium phosphate and 0.1M Tris-HCl in methanol at a final pH of 7.6. […] Detector output was recorded and integrated by a Perkin-Elmer LCI 100 integrator.

[2] = compared with MTX; cited from earlier work
[3] = cited from earlier work
[4] = K562 cells, 120 hours continuous exposure, read-out: IC50

| IC50 (L. casei DHFR) [µM] | IC50 (CCRF/CEM Cells) [µM] | IC50 (Chicken Liver DHFR) [µM] | IC50 (K562 cells; [4]) [µM] | Structure (SMILES) | also measured |
| --- | --- | --- | --- | --- | --- |
| 0.168 | 0.076 | 0.14 | 0.05 | CN(Cc1nc2c(N)nc(N)nc2nc1N)c1ccc(C(=O)N[C@@H](CCC(=O)O)C(=O)O)cc1 [7-NH2 -MTX, 4,7-diamino-N-10-methylpteroylglutamic acid] | metabolism to 7-OH-MTX, in words [1]: not even a slight metabolism of 7-NH2 -MTX to 7-OH-MTX could be detected over an hour; effectiveness as DHFR inhibitor, in words (Chicken Liver DHFR; chicken liver and L. casei DHFR): still relatively effective as a DHFR inhibitor; ability to inhibit growth of leukemia cell lines, in words (K562 cells; K562 and CCRF/CEM cells): still effective at inhibiting the growth of the leukemia cell lines; times more compound as compared with MTX required to inhibit cell growth by 50% (K562 cells; K562 and CCRF/CEM cells): 6-7 times |
| 15 | – | 10 | 6 | CN(Cc1nc2c(N)nc(N)nc2nc1P(=O)(O)O)c1ccc(C(=O)N[C@@H](CCC(=O)O)C(=O)O)cc1 [7-P(O)(OH)2 -MTX] | – |
| 0.5 | 5 | 1.5 | 0.85 | CN(Cc1nc2c(N)nc(N)nc2nc1F)c1ccc(C(=O)N[C@@H](CCC(=O)O)C(=O)O)cc1 [7-F-MTX] | – |
| 0.75 | 5 | 0.5 | 0.5 | CC(C)Nc1nc2nc(N)nc(N)c2nc1CN(C)c1ccc(C(=O)N[C@@H](CCC(=O)O)C(=O)O)cc1 [7-NHCH(CH3)2 -MTX] | – |
| 0.67 | 6 | 0.2 | 1 | CC(C)Oc1nc2nc(N)nc(N)c2nc1CN(C)c1ccc(C(=O)N[C@@H](CCC(=O)O)C(=O)O)cc1 [7-OCH(CH3)2 -MTX] | – |
| 0.2 | 0.3 | 0.3 | 0.3 | CNc1nc2nc(N)nc(N)c2nc1CN(C)c1ccc(C(=O)N[C@@H](CCC(=O)O)C(=O)O)cc1 [7-CH3 NH-MTX, 4-amino-7-methylamino-N-10-methylpteroylglutamic acid] | times more compound as compared with MTX required to inhibit cell growth by 50% (K562 cells; K562 and CCRF/CEM cells): 25-40 times |
| 1 | 4.5 | 0.75 | 0.45 | COc1nc2nc(N)nc(N)c2nc1CN(C)c1ccc(C(=O)N[C@@H](CCC(=O)O)C(=O)O)cc1 [7-OCH3 -MTX] | – |

The next lines start with the compound.

| Structure (SMILES) | IC50 (L. casei DHFR) [µM] | IC50 (CCRF/CEM Cells) [µM] | IC50 (Chicken Liver DHFR) [µM] | IC50 (K562 cells; [4]) [µM] | also measured |
| --- | --- | --- | --- | --- | --- |
| CN(Cc1nc2c(N)nc(N)nc2nc1Cl)c1ccc(C(=O)N[C@@H](CCC(=O)O)C(=O)O)cc1 [7-Cl-MTX] | 50 | 10 | 20 | 10 | – |
| CCOc1nc2nc(N)nc(N)c2nc1CN(C)c1ccc(C(=O)N[C@@H](CCC(=O)O)C(=O)O)cc1 [7-OC2 H5 -MTX] | 1.2 | 4 | 2 | 0.85 | – |
| Cc1nc2nc(N)nc(N)c2nc1CN(C)c1ccc(C(=O)N[C@@H](CCC(=O)O)C(=O)O)cc1 [7-methyl substituted MTX] | – | – | – | – | antifolate antagonism / biological activity, in words [2]: impaired antifolate antagonism |
| CN(Cc1nc2c(N)nc(N)nc2nc1N=[N+]=[N-])c1ccc(C(=O)N[C@@H](CCC(=O)O)C(=O)O)cc1 [7-N3 -MTX] | 0.2 | 2 | 0.4 | 1 | – |
| CN(Cc1cnc2nc(N)nc(N)c2n1)c1ccc(C(=O)N[C@@H](CCC(=O)O)C(=O)O)cc1 [MTX] | – | 0.011 | – | – | metabolism to 7-OH-MTX, in words ([1]; over an hour, 37° C.): substantially metabolized to 7-OH-MTX within an hour; metabolised at 10 min ([1]; rabbit, liver homogenate): ~50%; remaining at 1 h ([1]; rabbit, liver homogenate): < 25%; renal and hepatic toxicity, in words ([3]; high dose regimen): associated with renal and hepatic toxicity; conversion in vivo, in words ([3]; man and monkeys): converted in vivo to 7-hydroxymethotrexate (7-OH-MTX); IC50 (K562 cells; K562, 120 h): 0.008 µM |
| CN(Cc1cnc2nc(N)nc(N)c2n1)c1c(F)cc(C(=O)N[C@@H](CCC(=O)O)C(=O)O)cc1F [3',5'-difluoroMTX] | – | – | – | – | antifolate antagonism / biological activity, in words [2]: little or no increase in biological activity as compared with MTX |
